From patent US10160719B2, “Pharmaceutical salts” (GRUNENTHAL GMBH, priority 2001, dated 2018)
Where a name gives a salt, the structure may show the parent alone.

Assay: water solubility determination at 20° C. in ion-free water
Conditions: for solubility at 10 min: water
Procedure: In a clear colorless vessel made of transparent material, such as, for example, glass or plastic, 1 ml of ion-free water or a fraction (amount A in ml) thereof is introduced at a temperature of 20° C.
If the amount of salt B added (in mg) completely dissolved, further amounts of the respective salt were slowly added. Each further addition was recorded and the solution behavior observed. As soon as the first turbidity due to undissolved salt was found by observation against a suitable background, stirring was continued for a further 10 minutes. If undissolved constituents subsequently remained, the sum C (in mg) of the amount of substance employed was determined. If a clear solution resulted again on stirring, further small amounts of the respective salt were added and the mixture was in each case stirred again for 10 minutes until a first turbidity remained on account of undissolved salts. The excess amount of undissolved substance was then brought into solution with stirring by addition of small amounts of water. After a clear solution had been obtained, the sum D (in ml) of the amount of water employed was determined. The solubility of the respective salt per 1 ml of water was then calculated according to the following formula: […]
If undissolved salt still remained then, the undissolved portion was brought into solution by addition of small amounts of water with stirring. After obtainment of a clear solution, the sum E (in ml) of the amounts of water employed was determined. The solubility of the respective salt per 1 ml of water was then calculated according to the following formula: […]

[1] = Solubility of the active compound saccharinate in mg/ml of water, saccharinate salt, ion-free water, 20° C.
[2] = Solubility of the active compound salt in mg/ml of water, conventional salt of the active compound (salt indicated in brackets), ion-free water, 20° C.
[3] = saccharinate salt, ion-free water, 20° C.

COc1cccc([C@@]2(O)C[C@H](O)CC[C@@H]2CN(C)C)c1 (racemic) [(1RS,3RS,6RS)-6-dimethylaminomethyl-1-(3-methoxy-phenyl)cyclohexane-1,3-diol]
solubility at 10 min [1]: ≥ 71 mg/mL | solubility at 10 min [2]: ≥ 500 mg/mL

COc1cccc([C@@]2(O)CC[C@H](OCc3ccc(F)cc3)C[C@@H]2CN(C)C)c1 [(+)-(1R,2R,4S)-2-dimethylaminomethyl-4-(4-fluorobenzyl-oxy)-1-(3-methoxy-phenyl)cyclohexanol]
solubility at 10 min (ion-free water, Solubility of the active compound saccharinate in mg/ml of water, saccharinate salt, 20° C.): ≥ 10 mg/mL | solubility at 10 min (ion-free water, Solubility of the active compound salt in mg/ml of water, conventional salt of the active compound (salt indicated in brackets), 20° C.): ≥ 33 mg/mL

CC[C@H](c1cccc(O)c1)[C@H](C)CN(C)C.Cl [(+)-(1S,2S)-3-(3-dimethylamino-1-ethyl-2-methylpropyl)phenol hydrochloride]
solubility at 10 min [2]: ≥ 650 mg/mL

CC[C@H](c1cccc(O)c1)[C@H](C)CN(C)C.O=C1NS(=O)(=O)c2ccccc21 [(+)-(1S,2S)-3-(3-dimethylamino-1-ethyl-2-methylpropyl)phenol saccharinate]
Solubility of the active compound saccharinate in mg/ml of water [3]: ≥ 55 mg/ml of water

CC[C@@H](c1cccc(O)c1)[C@@H](C)CN(C)C [(−)-(1R,2R)-3-(3-dimethylamino-1-ethyl-2-methylpropyl)phenol]
solubility at 10 min [1]: ≥ 31 mg/mL | solubility at 10 min [2]: ≥ 261 mg/mL

CC[C@@](F)(c1cccc(O)c1)[C@@H](C)CN(C)C [(−)-(1S,2S)-3-(3-dimethylamino-1-ethyl-1-fluoro-2-methyl-propyl)phenol]
solubility at 10 min [1]: ≥ 130 mg/mL | solubility at 10 min [2]: ≥ 568 mg/mL

CC[C@@](O)(c1cccc(OC)c1)[C@@H](C)CN(C)C [(−)-(2S,3S)-1-dimethylamino-3-(3-methoxyphenyl)-2-methylpentan-3-ol]
solubility at 10 min [1]: ≥ 90 mg/mL | solubility at 10 min [2]: ≥ 2000 mg/mL

COc1cc(N)cn[n+]1-c1ccccc1 [Amezinium metilsulfate, Amezinium]
solubility at 10 min (Solubility of the active compound salt in mg/ml of water): ≥ 25 mg/mL

COc1cc(N)cn[n+]1-c1ccccc1 [Amezinium saccharinate, Amezinium]
solubility at 10 min (Solubility of the active compound saccharinate in mg/ml of water): ≥ 8 mg/mL

COc1ccc2c3c1O[C@H]1[C@@H](O)C=C[C@H]4[C@@H](C2)N(C)CC[C@@]341 [Codeine phosphate hemihydrate, Codeine]
solubility at 10 min [2]: ≥ 250 mg/mL

COc1ccc2c3c1O[C@H]1[C@@H](O)C=C[C@H]4[C@@H](C2)N(C)CC[C@@]341 [Codeine saccharinate, Codeine]
solubility at 10 min [1]: ≥ 200 mg/mL

CNC[C@H](O)c1cccc(O)c1 [Phenylephrine hydrochloride, Phenylephrine]
solubility at 10 min [2]: ≥ 1250 mg/mL

CNC[C@H](O)c1cccc(O)c1 [Phenylephrine saccharinate, Phenylephrine]
solubility at 10 min [1]: ≥ 380 mg/mL

Benzalkonium [Benzalkonium hydrochloride]
Solubility of the active compound salt in mg/ml of water (conventional salt of the active compound (salt indicated in brackets), ion-free water, 20° C.): ≥ 500 mg/ml of water

Benzalkonium [Benzalkonium saccharinate]
Solubility of the active compound saccharinate in mg/ml of water [3]: <2 mg/ml of water
